Tested on: 898857-211-R-J1-PDC complex spheroids, growth % test/control
Assay: Anticancer human tumor 898857-211-R-J1-PDC patient-derived melanoma cell line growth inhibition [RAS]
Settings: for IC50: curve of first compound; for viability, T/C: stronger effect = lower value
Outline: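 Tumour cells grown as complex spheroids with HUVEC endothelial cells and mesenchymal stem cells, treated with RAS pathway inhibitor combinations. Each agent spans half-log steps from near clinical Cmax, or 10 microM where Cmax is unknown.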

[1] = second compound 0.00316 µM, first compound 0.0316 µM
[2] = second compound 0.00316 µM, first compound 0.1 µM
[3] = second compound 0.00316 µM, first compound 0.316 µM
[4] = second compound 0.00316 µM, first compound 1 µM
[5] = second compound 0.00316 µM, first compound 3.16 µM
[6] = second compound 0.00316 µM, first compound 10 µM
[7] = second compound 0.01 µM, first compound 0.0316 µM
[8] = second compound 0.01 µM, first compound 0.1 µM
[9] = second compound 0.01 µM, first compound 0.316 µM
[10] = second compound 0.01 µM, first compound 1 µM
[11] = second compound 0.01 µM, first compound 3.16 µM
[12] = second compound 0.01 µM, first compound 10 µM
[13] = second compound 0.0316 µM, first compound 0.0316 µM
[14] = second compound 0.0316 µM, first compound 0.1 µM
[15] = second compound 0.0316 µM, first compound 0.316 µM
[16] = second compound 0.0316 µM, first compound 1 µM
[17] = second compound 0.0316 µM, first compound 3.16 µM
[18] = second compound 0.0316 µM, first compound 10 µM
[19] = second compound 0.1 µM, first compound 0.0316 µM
[20] = second compound 0.1 µM, first compound 0.1 µM
[21] = second compound 0.1 µM, first compound 0.316 µM
[22] = second compound 0.1 µM, first compound 1 µM
[23] = second compound 0.1 µM, first compound 3.16 µM
[24] = second compound 0.1 µM, first compound 10 µM
[25] = second compound 0.316 µM, first compound 0.0316 µM
[26] = second compound 0.316 µM, first compound 0.1 µM
[27] = second compound 0.316 µM, first compound 0.316 µM
[28] = second compound 0.316 µM, first compound 1 µM
[29] = second compound 0.316 µM, first compound 3.16 µM
[30] = second compound 0.316 µM, first compound 10 µM
[31] = second compound 1 µM, first compound 0.0316 µM
[32] = second compound 1 µM, first compound 0.1 µM
[33] = second compound 1 µM, first compound 0.316 µM
[34] = second compound 1 µM, first compound 1 µM
[35] = second compound 1 µM, first compound 3.16 µM
[36] = second compound 1 µM, first compound 10 µM
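Further: spheroids exposed to compound for seven days before readout.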
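Wherever viability, T/C is given: 100% = DMSO vehicle control wells.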

Work on `Cc1nc(N2CCC3(CC2)COC(C)C3N)c(CO)nc1Sc1ccnc(N)c1Cl` (stereo unspecified) + C=CC(=O)N1CCN(c2nc(OCC3CCCN3C)nc3c(F)c(-c4nc(N)cc(C)c4C(F)(F)F)c(Cl)cc23)C(C)C1 yielded an IC50 (second compound 0.00316 µM) of over 10 µM, an IC50 (second compound 0.01 µM) of over 10 µM and an IC50 (second compound 0.0316 µM) of over 10 µM. For the same compound, the IC50 (second compound 0.1 µM) was over 10 µM, the IC50 (second compound 0.316 µM) was over 10 µM and the IC50 (second compound 1 µM) was over 10 µM. It also gave a viability, T/C [1] of 101%, a viability, T/C [2] of 92.4% and a viability, T/C [3] of 89%. It also gave a viability, T/C [4] of 82.2%, a viability, T/C [5] of 98.5% and a viability, T/C [6] of 92.1%. For the same compound, the viability, T/C [7] was 97.7%, the viability, T/C [8] was 94.6% and the viability, T/C [9] was 80.8%. It also gave a viability, T/C [10] of 91%, a viability, T/C [11] of 96.8% and a viability, T/C [12] of 81.1%. It also gave a viability, T/C [13] of 104%, a viability, T/C [14] of 102% and a viability, T/C [15] of 95.4%. It also gave a viability, T/C [16] of 98.5%, a viability, T/C [17] of 97.3% and a viability, T/C [18] of 99.5%. For the same compound, the viability, T/C [19] was 96.4%, the viability, T/C [20] was 102% and the viability, T/C [21] was 95.6%. It also gave a viability, T/C [22] of 94%, a viability, T/C [23] of 96.3% and a viability, T/C [24] of 91.7%. It also gave a viability, T/C [25] of 110%, a viability, T/C [26] of 102% and a viability, T/C [27] of 107%. It also gave a viability, T/C [28] of 103%, a viability, T/C [29] of 98.1% and a viability, T/C [30] of 93.5%. The viability, T/C [31] was 110%, the viability, T/C [32] was 106% and the viability, T/C [33] was 92.9%. The viability, T/C [34] was 97.4%, the viability, T/C [35] was 107% and the viability, T/C [36] was 82.2%.
Work on `NC1c2ccccc2OC12CCN(c1cnc3c(N4CCCc5ncccc54)n[nH]c3n1)CC2` (stereo unspecified) + C=CC(=O)N1CCN(c2nc(OCC3CCCN3C)nc3c(F)c(-c4nc(N)cc(C)c4C(F)(F)F)c(Cl)cc23)C(C)C1 yielded an IC50 (second compound 0.00316 µM) of over 10 µM, an IC50 (second compound 0.01 µM) of over 10 µM and an IC50 (second compound 0.0316 µM) of over 10 µM. For the same compound, the IC50 (second compound 0.1 µM) was over 10 µM, the IC50 (second compound 0.316 µM) was over 10 µM and the IC50 (second compound 1 µM) was over 10 µM. The viability, T/C [1] was 92.5%, the viability, T/C [2] was 98% and the viability, T/C [3] was 92.8%. The viability, T/C [4] was 89.2%, the viability, T/C [5] was 79.9% and the viability, T/C [6] was 75%. It also gave a viability, T/C [7] of 94.9%, a viability, T/C [8] of 85.9% and a viability, T/C [9] of 87.2%. It also gave a viability, T/C [10] of 83.3%, a viability, T/C [11] of 81.6% and a viability, T/C [12] of 78.6%. For the same compound, the viability, T/C [13] was 88.3%, the viability, T/C [14] was 85.8% and the viability, T/C [15] was 88.2%. It also gave a viability, T/C [16] of 86.2%, a viability, T/C [17] of 87.3% and a viability, T/C [18] of 71.8%. It also gave a viability, T/C [19] of 98.6%, a viability, T/C [20] of 89.8% and a viability, T/C [21] of 97.3%. For the same compound, the viability, T/C [22] was 99.5%, the viability, T/C [23] was 103% and the viability, T/C [24] was 74.1%. It also gave a viability, T/C [25] of 112%, a viability, T/C [26] of 103% and a viability, T/C [27] of 101%. It also gave a viability, T/C [28] of 107%, a viability, T/C [29] of 102% and a viability, T/C [30] of 76%. For the same compound, the viability, T/C [31] was 116%, the viability, T/C [32] was 93.6% and the viability, T/C [33] was 108%. It also gave a viability, T/C [34] of 94.2%, a viability, T/C [35] of 87.3% and a viability, T/C [36] of 58%.
`Nc1ccn(C2OC(CO)C(O)C2(F)F)c(=O)n1` (stereo unspecified) + C=CC(=O)N1CCN(c2nc(OCC3CCCN3C)nc3c(F)c(-c4nc(N)cc(C)c4C(F)(F)F)c(Cl)cc23)C(C)C1 gave an IC50 (second compound 0.00316 µM) of 0.00789 µM, an IC50 (second compound 0.01 µM) of 0.00724 µM and an IC50 (second compound 0.0316 µM) of 0.0071 µM. For the same compound, the IC50 (second compound 0.1 µM) was 0.00699 µM, the IC50 (second compound 0.316 µM) was 0.0073 µM and the IC50 (second compound 1 µM) was 0.00689 µM. For the same compound, the viability, T/C (second compound 0.00316 µM, first compound 0.00316 µM) was 110%, the viability, T/C (second compound 0.00316 µM, first compound 0.01 µM) was 34.5% and the viability, T/C [1] was 6.39%. It also gave a viability, T/C [2] of 4.85%, a viability, T/C [3] of 5.1% and a viability, T/C [4] of 4.69%. For the same compound, the viability, T/C (second compound 0.01 µM, first compound 0.00316 µM) was 107%, the viability, T/C (second compound 0.01 µM, first compound 0.01 µM) was 27.9% and the viability, T/C [7] was 5.64%. For the same compound, the viability, T/C [8] was 4.72%, the viability, T/C [9] was 4.8% and the viability, T/C [10] was 4.83%. The viability, T/C (second compound 0.0316 µM, first compound 0.00316 µM) was 103%, the viability, T/C (second compound 0.0316 µM, first compound 0.01 µM) was 27.9% and the viability, T/C [13] was 7.07%. It also gave a viability, T/C [14] of 5.22%, a viability, T/C [15] of 4.65% and a viability, T/C [16] of 4.83%. The viability, T/C (second compound 0.1 µM, first compound 0.00316 µM) was 96%, the viability, T/C (second compound 0.1 µM, first compound 0.01 µM) was 29.2% and the viability, T/C [19] was 6.93%. The viability, T/C [20] was 4.35%, the viability, T/C [21] was 4.72% and the viability, T/C [22] was 4.89%. For the same compound, the viability, T/C (second compound 0.316 µM, first compound 0.00316 µM) was 103%, the viability, T/C (second compound 0.316 µM, first compound 0.01 µM) was 30.1% and the viability, T/C [25] was 6.17%. The viability, T/C [26] was 5.08%, the viability, T/C [27] was 5.71% and the viability, T/C [28] was 4.45%. It also gave a viability, T/C (second compound 1 µM, first compound 0.00316 µM) of 104%, a viability, T/C (second compound 1 µM, first compound 0.01 µM) of 24% and a viability, T/C [31] of 8.63%. It also gave a viability, T/C [32] of 5.29%, a viability, T/C [33] of 6.52% and a viability, T/C [34] of 5.69%.

From PubChem BioAssay AID2060882 (Molecular Pharmacology Branch, DTP, NCI, 2025)
